Measurements as given in PubChem BioAssay AID2060906 (Molecular Pharmacology Branch, DTP, NCI, 2025).
Values belong to the compound of their own block, whether it stands above or below them.

Tested on: 485176-168-R4-J1-PDC complex spheroid growth
Experiment: Anticancer human tumor 485176-168-R4-J1-PDC patient-derived pancreatic adenocarcinoma cell line growth inhibition [RAS]
Details: for IC50: curve of first compound; for viability, T/C: stronger effect = lower value
Procedure, shortened: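 Agents were tested in combination matrices in half-log decrements from a top concentration at or near clinical Cmax (10 microM if undetermined). Targets were multi-cell spheroids of tumour lines plus HUVEC and MSC stromal cells.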
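Also: spheroids exposed to compounds for seven days before readout.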
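For viability, T/C in this document: luminescence viability expressed relative to DMSO vehicle wells set as 100%.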

IC50 (second compound 0.0316 µM): 19.3 nM
IC50 (second compound 0.1 µM): 13.4 nM
IC50 (second compound 0.316 µM): 16.4 nM
IC50 (second compound 1 µM): 17.8 nM
IC50 (second compound 3.16 µM): 22.1 nM
IC50 (second compound 10 µM): 27.2 nM
SMILES: CCc1c2c(nc3ccc(O)cc13)-c1cc3c(c(=O)n1C2)COC(=O)[C@]3(O)CC + C#Cc1c(F)ccc2cc(O)cc(-c3ncc4c(N5CC6CCC(C5)N6)nc(OCC56CCCN5CC(F)C6)nc4c3F)c12
viability, T/C (second compound 0.0316 µM, first compound 0.000949 µM): 93.9%
viability, T/C (second compound 0.0316 µM, first compound 0.003 µM): 82.8%
viability, T/C (second compound 0.0316 µM, first compound 0.00949 µM): 71.2%
viability, T/C (second compound 0.0316 µM, first compound 0.03 µM): 36.8%
viability, T/C (second compound 0.0316 µM, first compound 0.0949 µM): 16.7%
viability, T/C (second compound 0.0316 µM, first compound 0.3 µM): 7.74%
viability, T/C (second compound 0.1 µM, first compound 0.000949 µM): 102%
viability, T/C (second compound 0.1 µM, first compound 0.003 µM): 96.7%
viability, T/C (second compound 0.1 µM, first compound 0.00949 µM): 52.9%
viability, T/C (second compound 0.1 µM, first compound 0.03 µM): 32.2%
viability, T/C (second compound 0.1 µM, first compound 0.0949 µM): 18.3%
viability, T/C (second compound 0.1 µM, first compound 0.3 µM): 6.56%
viability, T/C (second compound 0.316 µM, first compound 0.000949 µM): 112%
viability, T/C (second compound 0.316 µM, first compound 0.003 µM): 107%
viability, T/C (second compound 0.316 µM, first compound 0.00949 µM): 60.7%
viability, T/C (second compound 0.316 µM, first compound 0.03 µM): 35.2%
viability, T/C (second compound 0.316 µM, first compound 0.0949 µM): 16%
viability, T/C (second compound 0.316 µM, first compound 0.3 µM): 6.47%
viability, T/C (second compound 1 µM, first compound 0.000949 µM): 102%
viability, T/C (second compound 1 µM, first compound 0.003 µM): 94.4%
viability, T/C (second compound 1 µM, first compound 0.00949 µM): 63%
viability, T/C (second compound 1 µM, first compound 0.03 µM): 38.6%
viability, T/C (second compound 1 µM, first compound 0.0949 µM): 15.9%
viability, T/C (second compound 1 µM, first compound 0.3 µM): 7.94%
viability, T/C (second compound 3.16 µM, first compound 0.000949 µM): 94.7%
viability, T/C (second compound 3.16 µM, first compound 0.003 µM): 101%
viability, T/C (second compound 3.16 µM, first compound 0.00949 µM): 69.3%
viability, T/C (second compound 3.16 µM, first compound 0.03 µM): 42.9%
viability, T/C (second compound 3.16 µM, first compound 0.0949 µM): 19.1%
viability, T/C (second compound 3.16 µM, first compound 0.3 µM): 9.06%
viability, T/C (second compound 10 µM, first compound 0.000949 µM): 127%
viability, T/C (second compound 10 µM, first compound 0.003 µM): 90.6%
viability, T/C (second compound 10 µM, first compound 0.00949 µM): 77.9%
viability, T/C (second compound 10 µM, first compound 0.03 µM): 46.6%
viability, T/C (second compound 10 µM, first compound 0.0949 µM): 17.7%
viability, T/C (second compound 10 µM, first compound 0.3 µM): 6.96%

IC50 (second compound 0.0316 µM): 17.3 nM
IC50 (second compound 0.1 µM): 16.4 nM
IC50 (second compound 0.316 µM): 14.2 nM
IC50 (second compound 1 µM): 18.2 nM
IC50 (second compound 3.16 µM): 15.3 nM
IC50 (second compound 10 µM): 15.3 nM
SMILES: Nc1ccn(C2OC(CO)C(O)C2(F)F)c(=O)n1 (centres undefined) + C#Cc1c(F)ccc2cc(O)cc(-c3ncc4c(N5CC6CCC(C5)N6)nc(OCC56CCCN5CC(F)C6)nc4c3F)c12
viability, T/C (second compound 0.0316 µM, first compound 0.00316 µM): 84%
viability, T/C (second compound 0.0316 µM, first compound 0.01 µM): 80.9%
viability, T/C (second compound 0.0316 µM, first compound 0.0316 µM): 15.7%
viability, T/C (second compound 0.0316 µM, first compound 0.1 µM): 8.52%
viability, T/C (second compound 0.0316 µM, first compound 0.316 µM): 8.6%
viability, T/C (second compound 0.0316 µM, first compound 1 µM): 8.88%
viability, T/C (second compound 0.1 µM, first compound 0.00316 µM): 87.7%
viability, T/C (second compound 0.1 µM, first compound 0.01 µM): 76.1%
viability, T/C (second compound 0.1 µM, first compound 0.0316 µM): 15.6%
viability, T/C (second compound 0.1 µM, first compound 0.1 µM): 8.78%
viability, T/C (second compound 0.1 µM, first compound 0.316 µM): 9.24%
viability, T/C (second compound 0.1 µM, first compound 1 µM): 9.6%
viability, T/C (second compound 0.316 µM, first compound 0.00316 µM): 80.7%
viability, T/C (second compound 0.316 µM, first compound 0.01 µM): 66.1%
viability, T/C (second compound 0.316 µM, first compound 0.0316 µM): 13.2%
viability, T/C (second compound 0.316 µM, first compound 0.1 µM): 7.37%
viability, T/C (second compound 0.316 µM, first compound 0.316 µM): 11.3%
viability, T/C (second compound 0.316 µM, first compound 1 µM): 10.4%
viability, T/C (second compound 1 µM, first compound 0.00316 µM): 94.8%
viability, T/C (second compound 1 µM, first compound 0.01 µM): 84.9%
viability, T/C (second compound 1 µM, first compound 0.0316 µM): 17.8%
viability, T/C (second compound 1 µM, first compound 0.1 µM): 7.27%
viability, T/C (second compound 1 µM, first compound 0.316 µM): 10.2%
viability, T/C (second compound 1 µM, first compound 1 µM): 9.53%
viability, T/C (second compound 3.16 µM, first compound 0.00316 µM): 82.5%
viability, T/C (second compound 3.16 µM, first compound 0.01 µM): 69.7%
viability, T/C (second compound 3.16 µM, first compound 0.0316 µM): 16.5%
viability, T/C (second compound 3.16 µM, first compound 0.1 µM): 10.8%
viability, T/C (second compound 3.16 µM, first compound 0.316 µM): 10.5%
viability, T/C (second compound 3.16 µM, first compound 1 µM): 10.3%
viability, T/C (second compound 10 µM, first compound 0.00316 µM): 92.4%
viability, T/C (second compound 10 µM, first compound 0.01 µM): 71.2%
viability, T/C (second compound 10 µM, first compound 0.0316 µM): 14.2%
viability, T/C (second compound 10 µM, first compound 0.1 µM): 11.5%
viability, T/C (second compound 10 µM, first compound 0.316 µM): 10.9%
viability, T/C (second compound 10 µM, first compound 1 µM): 9.84%
